The values below come from ChEMBL document CHEMBL4004843, “"Addition" and "Subtraction": Selectivity Design for Type II Maternal Embryonic Leucine Zipper Kinase Inhibitors” (J Med Chem, 2017).

For assay [1], the target named is Maternal embryonic leucine zipper kinase (Homo sapiens, UniProt Q14680). As to the kind of experiment: Inhibition of MELK (unknown origin) containing kinase domain and UBA domain using STK S1 as substrate after 20 mins by HTRF assay.
Assay [2] deals with Rho-associated protein kinase 2 (Homo sapiens, UniProt O75116). As to the kind of experiment: Inhibition of ROCK2 (unknown origin).
Sequence of Rho-associated protein kinase 2 (O75116 whole entry): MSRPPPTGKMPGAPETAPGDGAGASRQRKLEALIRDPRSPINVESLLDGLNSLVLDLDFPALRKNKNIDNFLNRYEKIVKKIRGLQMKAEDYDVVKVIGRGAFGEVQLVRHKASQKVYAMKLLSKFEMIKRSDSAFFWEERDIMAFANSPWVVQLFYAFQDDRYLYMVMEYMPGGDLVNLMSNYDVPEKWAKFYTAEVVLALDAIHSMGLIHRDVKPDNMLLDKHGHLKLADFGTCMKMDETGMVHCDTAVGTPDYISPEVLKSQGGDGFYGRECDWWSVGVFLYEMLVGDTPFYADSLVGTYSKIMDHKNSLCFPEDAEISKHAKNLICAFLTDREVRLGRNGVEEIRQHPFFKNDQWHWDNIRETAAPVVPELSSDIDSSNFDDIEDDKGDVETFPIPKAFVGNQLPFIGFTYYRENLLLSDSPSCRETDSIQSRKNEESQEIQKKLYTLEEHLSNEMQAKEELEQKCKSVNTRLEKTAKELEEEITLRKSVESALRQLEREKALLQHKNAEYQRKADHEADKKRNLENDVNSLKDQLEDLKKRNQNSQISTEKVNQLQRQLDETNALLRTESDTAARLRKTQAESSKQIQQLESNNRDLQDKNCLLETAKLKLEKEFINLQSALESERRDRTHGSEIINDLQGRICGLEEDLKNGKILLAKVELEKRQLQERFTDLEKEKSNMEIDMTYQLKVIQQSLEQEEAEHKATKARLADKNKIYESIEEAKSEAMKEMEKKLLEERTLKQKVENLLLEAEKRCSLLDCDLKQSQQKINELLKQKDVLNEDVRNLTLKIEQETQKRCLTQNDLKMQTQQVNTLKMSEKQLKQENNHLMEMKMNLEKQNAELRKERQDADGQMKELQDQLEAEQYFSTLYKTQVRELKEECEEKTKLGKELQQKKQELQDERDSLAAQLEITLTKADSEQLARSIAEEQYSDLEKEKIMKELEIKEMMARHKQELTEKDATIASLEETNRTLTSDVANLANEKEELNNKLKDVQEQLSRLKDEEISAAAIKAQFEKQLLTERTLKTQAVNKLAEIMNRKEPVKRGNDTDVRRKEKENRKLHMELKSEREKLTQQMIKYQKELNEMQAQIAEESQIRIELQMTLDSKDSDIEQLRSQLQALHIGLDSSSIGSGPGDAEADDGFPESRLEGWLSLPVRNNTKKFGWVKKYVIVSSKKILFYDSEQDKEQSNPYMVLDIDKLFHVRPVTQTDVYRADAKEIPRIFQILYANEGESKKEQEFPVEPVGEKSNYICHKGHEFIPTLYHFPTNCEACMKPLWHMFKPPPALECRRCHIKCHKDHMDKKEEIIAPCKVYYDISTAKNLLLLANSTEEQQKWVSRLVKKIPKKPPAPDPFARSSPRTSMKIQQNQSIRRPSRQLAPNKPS

Sequence of Maternal embryonic leucine zipper kinase (Q14680 whole entry, the tested form may be a part): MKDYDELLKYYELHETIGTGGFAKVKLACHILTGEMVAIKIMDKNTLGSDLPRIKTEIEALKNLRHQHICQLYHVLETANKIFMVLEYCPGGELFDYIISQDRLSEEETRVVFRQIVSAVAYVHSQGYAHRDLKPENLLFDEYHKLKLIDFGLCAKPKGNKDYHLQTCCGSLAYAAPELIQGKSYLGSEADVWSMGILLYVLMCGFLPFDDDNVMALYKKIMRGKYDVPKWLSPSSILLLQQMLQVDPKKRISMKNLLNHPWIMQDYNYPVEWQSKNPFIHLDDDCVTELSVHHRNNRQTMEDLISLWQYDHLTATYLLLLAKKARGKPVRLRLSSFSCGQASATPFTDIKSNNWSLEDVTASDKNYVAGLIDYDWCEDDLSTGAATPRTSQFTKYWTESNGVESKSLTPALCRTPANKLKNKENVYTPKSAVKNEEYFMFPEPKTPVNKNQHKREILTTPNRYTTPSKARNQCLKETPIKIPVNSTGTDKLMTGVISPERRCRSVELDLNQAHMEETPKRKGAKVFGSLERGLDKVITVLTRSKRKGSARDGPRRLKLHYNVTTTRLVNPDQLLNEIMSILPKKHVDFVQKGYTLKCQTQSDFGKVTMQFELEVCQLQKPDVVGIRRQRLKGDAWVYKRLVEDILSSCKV

As to `CNc1ncc(-c2ccc(C(=O)NCc3nc4ccccc4[nH]3)cc2)c(OCC2CCNCC2)n1`, in assay [1], the IC50 is 9.2 nM.

As to `COc1ccc2nc(CNC(=O)c3ccc(-c4cnc(Nc5ccccc5)nc4OCC4CCNCC4)cc3)[nH]c2c1`, half-maximal inhibition in assay [1] (IC50) required 0.15 nM. Regarding `O=C(CNC(=O)c1ccc(-c2cnccc2OCC2CCNCC2)cc1)Nc1ccccc1`, the values for the IC50 in assay [1] and in assay [2] were 740 nM and 360 nM, respectively. In assay [1], `O=C(NCc1nc2ccccc2[nH]1)c1ccc(-c2cnccc2OCC2CCNCC2)cc1` displayed an IC50 of 12 nM. Take `COc1ccc2nc(CNC(=O)c3ccc(-c4cnccc4OCC4CCNCC4)cc3)[nH]c2c1`: the IC50 in assay [1] came to 1.5 nM; in assay [2], 7800 nM. In assay [1], `O=C(NCc1nc2ccccc2[nH]1)c1ccc(-c2cnc(Nc3ccccc3)nc2OCC2CCNCC2)cc1` came in with an IC50 of 1.1 nM. Same read-out and setting: then `CNc1ncc(-c2ccc(C(=O)NCc3nc4ccc(OC)cc4[nH]3)cc2)c(OCC2CCNCC2)n1`, with 1.5 nM; and `O=C(CNC(=O)c1ccc(-c2cnc(Nc3ccccc3)nc2OCC2CCNCC2)cc1)Nc1ccccc1`, with 8.8 nM; and `CNc1ncc(-c2ccc(C(=O)NCC(=O)Nc3ccccc3)cc2)c(OCC2CCNCC2)n1`, with 120 nM.
